15 molecules from patent publication US20250163104A1, “MACROCYCLIC IMMUNOMODULATORS” (priority 2021, published 2025) can be followed below.

Like-named read-outs stand apart in the source and are kept apart here. Where a SMILES comes first, the peptide text is derived from it. Bridges are numbered along the chain shown (N, C = ends). [ ]: non-standard residue; d: D form. The star is where a group is joined. Phe(4-COOH) = N[C@@H](Cc1ccc(C(=O)O)cc1)C(=O)O; Bip = N[C@@H](Cc1ccc(-c2ccccc2)cc1)C(=O)O; Ala(2-furyl) = N[C@@H](Cc1ccco1)C(=O)O; Phe(3-Me) = Cc1cccc(C[C@H](N)C(=O)O)c1; AEF = NCCOc1ccc(C[C@H](N)C(=O)O)cc1; Val(3-OH) = CC(C)(O)[C@H](N)C(=O)O; 4Pal = N[C@@H](Cc1ccncc1)C(=O)O; Cha = N[C@@H](CC1CCCCC1)C(=O)O; Cit = NC(=O)NCCC[C@H](N)C(=O)O; dNle = CCCC[C@@H](N)C(=O)O; Carboxymethyl = O=C(O)C*; Orn = NCCC[C@H](N)C(=O)O; Pra = C#CC[C@H](N)C(=O)O; Dab = NCC[C@H](N)C(=O)O; Nva = CCC[C@H](N)C(=O)O; Dap = NC[C@H](N)C(=O)O; Bn = c1ccc(C*)cc1

The assay concerns the target T1, human PD-1 / PD-L1-Ig binding on Jurkat cell line over-expressing human PD-1 (Jurkat-PD-1) (Homo sapiens, UniProt Q15116).
T1 construct: expressed in transfected cells; host or cells: Jurkat
Put plainly: Jurkat-PD-1 Cell Binding High-Content Screening Assay (CBA). It is filed as cell-based. The note with it: PE-labeled PD-L1-Ig 20 nM final. In short, it runs like this: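 Read-out: high-content imaging of PE-tagged PD-L1-Ig bound to Jurkat cells overexpressing human PD-1, after fixation with 4% paraformaldehyde and Hoechst 33342 nuclear staining. Ligand was used at 20 nM final for 1 hour, after a 2 h compound exposure at 37° C in serum-containing DMEM.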

Where [1] appears, read: Jurkat-PD-1 cells, read-out: Jurkat HPD1_PDL1 IC50.
[2] abbreviates: Jurkat HPD1_PDL1 IC50, Jurkat-PD-1 cells.

T1 sequence (Q15116 25-288): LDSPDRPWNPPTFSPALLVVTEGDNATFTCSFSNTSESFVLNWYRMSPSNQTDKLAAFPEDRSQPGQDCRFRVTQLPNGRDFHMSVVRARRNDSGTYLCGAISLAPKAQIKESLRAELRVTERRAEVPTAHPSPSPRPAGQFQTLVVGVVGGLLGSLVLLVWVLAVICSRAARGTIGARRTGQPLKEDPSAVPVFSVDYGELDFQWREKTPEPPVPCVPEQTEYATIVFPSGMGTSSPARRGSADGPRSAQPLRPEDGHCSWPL

For the molecule `CCC[C@@H]1NC(=O)CSC[C@@H](C(=O)N[C@@H](CCN)C(N)=O)NC(=O)[C@H](CO)NC(=O)[C@H](C(C)(C)O)NC(=O)[C@H](CC2CCCCC2)NC(=O)[C@H](CCN)NC(=O)[C@@H](CC(C)C)NC(=O)[C@H](CCCN)NC(=O)[C@H](Cc2ccc(OCC(=O)O)cc2)NC(=O)[C@H](Cc2ccc(-c3ccccc3)cc2)NC(=O)[C@H](Cc2ccc(OCC(=O)O)cc2)NC(=O)[C@H](Cc2cccc(C)c2)NC(=O)[C@H](CC(=O)O)NC(=O)[C@H](Cc2ccc(C(=O)O)cc2)NC1=O` [Compound 2080] ({CH2CO}-[Nva][Phe(4-COOH)]D[Phe(3-Me)]Y(Carboxymethyl)[Bip]Y(Carboxymethyl)[Orn][dL][Dab][Cha][Val(3-OH)]SC[Dab]-NH2; thioether N-14), the IC50 under setting [1] worked out at 4.2 nM.

In the case of `CC(C)C[C@@H]1NC(=O)[C@H](Cc2c[nH]c3ccccc23)NC(=O)[C@H](CC(=O)O)NC(=O)[C@H](Cc2ccc(O)cc2)NC(=O)[C@H](Cc2ccccc2)NC(=O)CSC[C@@H](C(=O)N[C@@H](C)C(N)=O)NC(=O)[C@H]([C@@H](C)O)NC(=O)[C@H](C(C)C)NC(=O)[C@H](CC(C)C)NC(=O)[C@H](CC(N)=O)NC(=O)[C@@H](CC(C)C)NC(=O)[C@H](CCCN)NC(=O)[C@H](C(C)C)NC(=O)[C@H](Cc2ccc(-c3ccccc3)cc2)NC1=O` [Compound 1066] ({CH2CO}-FYDWL[Bip]V[Orn][dL]NLVTCA-NH2; thioether N-14), the IC50 under setting [1] was determined as 42.2 nM.

Consider `CC(C)C[C@H]1NC(=O)[C@H](CCCN)NC(=O)[C@H](CCC(=O)O)NC(=O)[C@H](Cc2ccc(-c3ccccc3)cc2)NC(=O)[C@H](C(C)C)NC(=O)[C@H](Cc2cccc(C(F)(F)F)c2)NC(=O)[C@H](CC(=O)O)NC(=O)[C@H](Cc2ccc(OCC(=O)O)cc2)NC(=O)[C@H](Cc2ccncc2)NC(=O)CSC[C@@H](C(=O)N[C@@H](C)C(N)=O)NC(=O)[C@H]([C@@H](C)O)NC(=O)[C@H](C(C)C)NC(=O)[C@H](CC2CCCCC2)NC(=O)[C@H](CCN)NC1=O` [Compound 1460], for which the IC50 under setting [1] was found to be 11.2 nM.

As to `CC(C)C[C@H]1NC(=O)[C@H](CCCN)NC(=O)[C@H](CCN)NC(=O)[C@H](Cc2ccc(-c3ccccc3)cc2)NC(=O)[C@H](C(C)C)NC(=O)[C@H](Cc2c[nH]c3ccccc23)NC(=O)[C@H](CC(=O)O)NC(=O)[C@H](Cc2ccc(C(=O)O)cc2)NC(=O)[C@H](Cc2ccc(OCC(=O)O)cc2)NC(=O)CSC[C@@H](C(=O)N[C@@H](C)C(N)=O)NC(=O)[C@H]([C@@H](C)O)NC(=O)[C@H](C(C)C)NC(=O)[C@H](CC2CCCCC2)NC(=O)[C@H](CCN)NC1=O` [Compound 1383], the IC50 under setting [1] worked out at 19.1 nM.

Regarding `CC(C)C[C@H]1NC(=O)[C@H](CCCN)NC(=O)[C@H](CCC(=O)O)NC(=O)[C@H](Cc2ccc(-c3ccccc3)cc2)NC(=O)[C@H](C(C)C)NC(=O)[C@H](Cc2c[nH]c3ccccc23)NC(=O)[C@H](CC(=O)O)NC(=O)[C@H](Cc2ccc(OCC(=O)O)cc2)NC(=O)[C@H](CN)NC(=O)CSC[C@@H](C(=O)N[C@@H](C)C(N)=O)NC(=O)[C@H]([C@@H](C)O)NC(=O)[C@H](C(C)C)NC(=O)[C@H](Cc2ccc(OCCN)cc2)NC(=O)[C@H](CCN)NC1=O` [Compound 1511] ({CH2CO}-[Dap]Y(Carboxymethyl)DWV[Bip]E[Orn][dL][Dab][AEF]VTCA-NH2; thioether N-14), the IC50 under setting [1] came out at 737 nM.

For `C#CC[C@H](NC(=O)[C@H](CCN)NC(=O)[C@@H]1CSCC(=O)N[C@@H](CCCN)C(=O)N[C@@H](Cc2ccc(C(=O)O)cc2)C(=O)N[C@@H](CC(=O)O)C(=O)N[C@@H](Cc2cccc(C)c2)C(=O)N[C@@H](Cc2ccc(C(=O)O)cc2)C(=O)N[C@@H](Cc2ccc(-c3ccccc3)cc2)C(=O)N[C@@H](Cc2ccc(C(=O)O)cc2)C(=O)N[C@@H](CCCN)C(=O)N[C@H](CC(C)C)C(=O)N[C@@H](CCN)C(=O)N[C@@H](CC2CCCCC2)C(=O)N[C@@H](C(C)(C)O)C(=O)N[C@@H](CCCN)C(=O)N1)C(N)=O` [Compound 1864] ({CH2CO}-[Orn][Phe(4-COOH)]D[Phe(3-Me)][Phe(4-COOH)][Bip][Phe(4-COOH)][Orn][dL][Dab][Cha][Val(3-OH)][Orn]C[Dab][Pra]-NH2; thioether N-14), under setting [1], the half-maximal inhibitory concentration (IC50) amounted to 16.5 nM.

`CCC(C)[C@@H]1NC(=O)[C@H](Cc2ccc(-c3ccccc3)cc2)NC(=O)[C@H](C(C)C)NC(=O)[C@H](Cc2cc(C)ccc2F)NC(=O)[C@H](CC(=O)O)NC(=O)[C@H](Cc2ccc(OCC(=O)O)cc2)NC(=O)[C@H](CN)NC(=O)CSC[C@@H](C(=O)N[C@@H](C)C(N)=O)NC(=O)[C@H]([C@@H](C)O)NC(=O)[C@H](C(C)C)NC(=O)[C@H](CC2CCCCC2)NC(=O)[C@H](CCN)NC(=O)[C@@H](CC(C)C)NC(=O)[C@H](CCCN)NC1=O` (stereo partly drawn) [Compound 2247]: the IC50 under setting [1] is 13.3 nM.

Consider `CCC[C@@H]1NC(=O)[C@H](Cc2ccc(-c3ccccc3)cc2)NC(=O)[C@H](C(C)C)NC(=O)[C@H](Cc2c[nH]c3ccccc23)NC(=O)[C@H](CC(=O)O)NC(=O)[C@H](Cc2ccc(C(=O)O)cc2)NC(=O)[C@H](Cc2ccncc2)NC(=O)CSC[C@@H](C(=O)N[C@@H](C)C(N)=O)NC(=O)[C@H]([C@@H](C)O)NC(=O)[C@H](C(C)C)NC(=O)[C@H](CC2CCCCC2)NC(=O)[C@H](Cc2cnc[nH]2)NC(=O)[C@@H](CC(C)C)NC(=O)[C@H](CCCN)NC1=O` [Compound 1623], for which the IC50 under setting [1] amounted to 27 nM.

Take `CC(C)C[C@H]1NC(=O)[C@H](CCCN)NC(=O)[C@H](CCCNC(N)=O)NC(=O)[C@H](Cc2ccc(-c3ccccc3)cc2)NC(=O)[C@H](C(C)C)NC(=O)[C@H](Cc2c[nH]c3ccccc23)NC(=O)[C@H](CC(=O)O)NC(=O)[C@H](Cc2ccco2)NC(=O)[C@H](CN)NC(=O)CSC[C@@H](C(=O)N[C@@H](C)C(N)=O)NC(=O)[C@H]([C@@H](C)O)NC(=O)[C@H](C(C)C)NC(=O)[C@H](CC2CCCCC2)NC(=O)[C@H](CCN)NC1=O` [Compound 2099] ({CH2CO}-[Dap][Ala(2-furyl)]DWV[Bip][Cit][Orn][dL][Dab][Cha]VTCA-NH2; thioether N-14): the IC50 under setting [1] stood at 12.6 nM.

Turning to `CC(C)C[C@H]1NC(=O)[C@H](CCCN)NC(=O)[C@H](CCCNC(N)=O)NC(=O)[C@H](Cc2ccc(-c3ccccc3)cc2)NC(=O)[C@H](C(C)C)NC(=O)[C@H](Cc2c[nH]c3ccccc23)NC(=O)[C@H](CC(=O)O)NC(=O)[C@H](Cc2ccc(OCC(=O)O)cc2)NC(=O)[C@H](CN)NC(=O)CSC[C@@H](C(=O)N[C@@H](C)C(N)=O)NC(=O)[C@H]([C@@H](C)O)NC(=O)[C@H](C(C)C)NC(=O)[C@H](Cc2ccncc2)NC(=O)[C@H](CCN)NC1=O` [Compound 1345] ({CH2CO}-[Dap]Y(Carboxymethyl)DWV[Bip][Cit][Orn][dL][Dab][4Pal]VTCA-NH2; thioether N-14), the IC50 under setting [1] is 236 nM.

As for `Cc1cccc(C[C@@H]2NC(=O)[C@H](CN)NC(=O)CSC[C@@H](C(=O)N[C@@H](C)C(N)=O)NC(=O)[C@H]([C@@H](C)O)NC(=O)[C@H](C(C)C)NC(=O)[C@H](CC3CCCCC3)NC(=O)[C@H](CCN)NC(=O)[C@@H](CC(C)C)NC(=O)[C@H](CCCN)NC(=O)[C@H](CCCNC(N)=O)NC(=O)[C@H](Cc3ccc(-c4ccccc4)cc3)NC(=O)[C@H](C(C)C)NC(=O)[C@H](Cc3c[nH]c4ccccc34)NC(=O)[C@H](CC(=O)O)NC2=O)c1` [Compound 2109] ({CH2CO}-[Dap][Phe(3-Me)]DWV[Bip][Cit][Orn][dL][Dab][Cha]VTCA-NH2; thioether N-14), the IC50 under setting [1] stood at 38.5 nM.

As to `CC(C)C[C@H]1NC(=O)[C@H](CCCN)NC(=O)[C@H](C(C)C)NC(=O)[C@H](Cc2ccc(-c3ccccc3)cc2)NC(=O)[C@H](C(C)C)NC(=O)[C@H](Cc2c[nH]c3ccccc23)NC(=O)[C@H](CC(=O)O)NC(=O)[C@H](Cc2ccc(OCC(=O)O)cc2)NC(=O)[C@H](CN)NC(=O)CSC[C@@H](C(=O)N[C@@H](C)C(N)=O)NC(=O)[C@H]([C@@H](C)O)NC(=O)[C@H](Cc2ccc(OCc3ccccc3)cc2)NC(=O)[C@H](CC2CCCCC2)NC(=O)[C@H](CCN)NC1=O` [Compound 1532] ({CH2CO}-[Dap]Y(Carboxymethyl)DWV[Bip]V[Orn][dL][Dab][Cha]Y(Bn)TCA-NH2; thioether N-14), under setting [2], the IC50 worked out at 111 nM.

For `CC(C)C[C@@H]1NC(=O)[C@H](CCCCN)NC(=O)[C@@H](CC(C)C)NC(=O)[C@H](CCCN)NC(=O)[C@H](Cc2cnc[nH]2)NC(=O)[C@H](Cc2ccc(-c3ccccc3)cc2)NC(=O)[C@H](C(C)C)NC(=O)[C@H](Cc2c[nH]c3ccccc23)NC(=O)[C@H](CC(=O)O)NC(=O)[C@H](Cc2ccc(O)cc2)NC(=O)[C@H](CC(N)=O)NC(=O)CSC[C@@H](C(=O)NCC(N)=O)NC(=O)[C@H](CO)NC(=O)[C@H](C(C)C)NC1=O` [Compound 1135] ({CH2CO}-NYDWV[Bip]H[Orn][dL]KLVSCG-NH2; thioether N-14), the IC50 under setting [1] was determined as 13 nM.

In the case of `CCCC[C@H]1NC(=O)[C@H](CCCN)NC(=O)[C@H](CCC(=O)O)NC(=O)[C@H](Cc2ccc(-c3ccccc3)cc2)NC(=O)[C@H](C(C)C)NC(=O)[C@H](Cc2c[nH]c3ccccc23)NC(=O)[C@H](CC(=O)O)NC(=O)[C@H](Cc2ccc(O)cc2)NC(=O)[C@H](CC(N)=O)NC(=O)CSC[C@@H](C(=O)N[C@@H](C)C(N)=O)NC(=O)[C@H]([C@@H](C)O)NC(=O)[C@H](C(C)C)NC(=O)[C@H](CC2CCCCC2)NC(=O)[C@H](CCN)NC1=O` [Compound 1453] ({CH2CO}-NYDWV[Bip]E[Orn][dNle][Dab][Cha]VTCA-NH2; thioether N-14), under setting [1], the IC50 was 9.7 nM.

On to `CC(C)C[C@@H]1NC(=O)[C@H](Cc2c[nH]c3ccccc23)NC(=O)[C@H](CC(=O)O)NC(=O)[C@H](Cc2ccc(O)cc2)NC(=O)[C@H](Cc2ccccc2)NC(=O)CSC[C@@H](C(=O)NCC(N)=O)NC(=O)[C@H]([C@@H](C)O)NC(=O)[C@H](C(C)C)NC(=O)[C@H](CC(C)C)NC(=O)[C@H](CC(N)=O)NC(=O)[C@@H](C)NC(=O)[C@H](CCCN)NC(=O)[C@H](C(C)C)NC(=O)[C@H](Cc2ccc(-c3ccccc3)cc2)NC1=O` [Compound 1107] ({CH2CO}-FYDWL[Bip]V[Orn][dA]NLVTCG-NH2; thioether N-14), for which the IC50 under setting [2] is 310 nM.
